According to patent publication US10722514B2 (FLX Bio, Inc., priority 2017, dated 2020):
pIC50: −log10 of the molar value. Counter-ions that a name gives are not always drawn.

Molecular target: T1, recombinant full-length USP7 (Homo sapiens, UniProt Q93009)
T1 construct: A 25 μl reaction volume containing recombinant full-length USP7 (62 pM)
Experiment: USP7-mediated ubiquitin-rhodamine cleavage assay
Assay type: biochemical
Settings: recombinant full-length USP7 62 pM; ubiquitin-rhodamine 100 nM; 30-minute pre-incubation, 1 hour reaction at room temperature; read-out: Potency (USP7 IC50)
Summary of the method: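 USP7 (62 pM) in 20 mM HEPES pH 7.3, 150 mM NaCl, 1 mM TCEP, 125 μg/ml BSA was preincubated with compound (1% DMSO) for 30 min at room temperature. Ubiquitin-rhodamine (100 nM final) was then added for 1 hour, the reaction stopped with acetic acid, and fluorescence read; IC50 from 4-parameter fit.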

T1 sequence (Q93009 whole entry): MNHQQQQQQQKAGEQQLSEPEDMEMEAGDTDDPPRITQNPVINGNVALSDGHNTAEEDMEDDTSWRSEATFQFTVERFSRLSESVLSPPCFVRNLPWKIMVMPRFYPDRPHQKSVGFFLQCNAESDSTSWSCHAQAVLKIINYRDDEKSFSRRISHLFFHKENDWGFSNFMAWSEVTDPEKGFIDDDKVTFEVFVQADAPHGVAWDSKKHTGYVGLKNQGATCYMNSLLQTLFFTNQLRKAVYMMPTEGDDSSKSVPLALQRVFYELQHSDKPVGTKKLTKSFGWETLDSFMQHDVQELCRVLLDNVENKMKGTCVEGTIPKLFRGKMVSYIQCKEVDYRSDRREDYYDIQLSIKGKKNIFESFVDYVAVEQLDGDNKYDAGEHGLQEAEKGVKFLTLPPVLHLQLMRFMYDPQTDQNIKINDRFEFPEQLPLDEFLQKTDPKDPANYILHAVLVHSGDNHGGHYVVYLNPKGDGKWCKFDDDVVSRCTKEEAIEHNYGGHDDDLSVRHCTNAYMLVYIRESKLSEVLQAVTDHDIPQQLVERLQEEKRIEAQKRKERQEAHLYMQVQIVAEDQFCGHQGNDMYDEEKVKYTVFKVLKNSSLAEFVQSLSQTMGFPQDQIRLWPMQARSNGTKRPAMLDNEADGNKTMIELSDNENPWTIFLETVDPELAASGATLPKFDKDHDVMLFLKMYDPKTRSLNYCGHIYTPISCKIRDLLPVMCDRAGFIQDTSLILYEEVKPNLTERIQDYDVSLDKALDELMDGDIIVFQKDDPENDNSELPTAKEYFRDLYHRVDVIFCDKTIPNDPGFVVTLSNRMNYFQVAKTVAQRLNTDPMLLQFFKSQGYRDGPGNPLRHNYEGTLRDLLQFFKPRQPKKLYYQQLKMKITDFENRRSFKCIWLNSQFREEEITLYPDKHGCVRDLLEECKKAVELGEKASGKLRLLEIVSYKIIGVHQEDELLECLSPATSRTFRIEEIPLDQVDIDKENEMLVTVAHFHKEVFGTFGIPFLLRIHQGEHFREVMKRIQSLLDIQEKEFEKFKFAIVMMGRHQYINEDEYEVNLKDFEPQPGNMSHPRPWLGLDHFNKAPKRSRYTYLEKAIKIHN

`Cc1cc(Cl)cc(-c2ccnc3cc(CN4C(=O)C[C@H](O)C4=O)sc23)c1OC1CCNCC1` [Example 417, (3S)-1-[[7-[5-chloro-3-methyl-2-(4-piperidyloxy)phenyl]thieno[3,2-b]pyridin-2-yl]methyl]-3-hydroxy-pyrrolidine-2,5-dione dihydrochloride] showed a pIC50 of over 6.00.
`Cc1cc(Cl)cc(-c2ccnc3cc(Cn4c(=O)ccn(C)c4=O)sc23)c1OC1CC2CNC1C2` (centres unmarked) [Example 418] was tested, and the pIC50 was over 6.00.
With `Cc1cc(Cl)cc(-c2ccnc3cc(CN4C(=O)CCC4=O)sc23)c1OC1CCCNC1C` (centres unmarked) [Example 419, 1-[[7-[5-chloro-3-methyl-2-[(2-methyl-3-piperidyl)oxy]phenyl]thieno[3,2-b]pyridin-2-yl]methyl]pyrrolidine-2,5-dione] the pIC50 was over 6.00.
`Cc1cc(Cl)cc(-c2ccnc3cc(Cn4c(=O)[nH]cc(F)c4=O)sc23)c1O[C@H]1CCCNC1` [Example 420, 3-[[7-[5-chloro-3-methyl-2-[[(3S)-3-piperidyl]oxy]phenyl]thieno[3,2-b]pyridin-2-yl]methyl]-5-fluoro-1H-pyrimidine-2,4-dione] was tested, and the pIC50 was over 6.00.
`CO[C@H]1CC(=O)N(Cc2cc3nccc(-c4cc(Cl)cc(C)c4O[C@H]4CCCNC4)c3s2)C1=O` [Example 421, (3S)-1-[[7-[5-chloro-3-methyl-2-[[(3S)-3-piperidyl]oxy]phenyl]thieno[3,2-b]pyridin-2-yl]methyl]-3-methoxy-pyrrolidine-2,5-dione; 2,2,2-trifluoroacetic acid] gave a pIC50 of over 6.00.
In the case of `Cc1cc(Cl)cc(-c2ccnc3cc(Cn4c(=O)c(F)cn(C)c4=O)sc23)c1O[C@H]1CCCNC1` [Example 422, 3-[[7-[5-chloro-3-methyl-2-[[(3S)-3-piperidyl]oxy]phenyl]thieno[3,2-b]pyridin-2-yl]methyl]-5-fluoro-1-methyl-pyrimidine-2,4-dione], the pIC50 was over 6.00.
Work on `CCn1ccc(=O)n(Cc2cc3nccc(-c4cc(Cl)cc(C)c4O[C@H]4CCCNC4)c3s2)c1=O` [Example 423, 3-[[7-[5-chloro-3-methyl-2-[[(3S)-3-piperidyl]oxy]phenyl]thieno[3,2-b]pyridin-2-yl]methyl]-1-ethyl-pyrimidine-2,4-dione] yielded a pIC50 of over 6.00.
With `Cc1cc(Cl)cc(-c2ccnc3cc(CN4C(=O)CCC4=O)sc23)c1O[C@@H]1CNC[C@H](F)C1` [Example 424, 1-[[7-[5-chloro-2-[[(3S,5R)-5-fluoro-3-piperidyl]oxy]-3-methyl-phenyl]thieno[3,2-b]pyridin-2-yl]methyl]pyrrolidine-2,5-dione] the pIC50 was over 6.00.
For `Cc1cc(Cl)cc(-c2ccnc3cc(CN4C(=O)CCC4=O)sc23)c1O[C@H]1CNCC[C@@H]1F` [Example 425, 1-[[7-[5-chloro-2-[[(3S,4S)-4-fluoro-3-piperidyl]oxy]-3-methyl-phenyl]thieno[3,2-b]pyridin-2-yl]methyl]pyrrolidine-2,5-dione], the pIC50 was over 6.00.
`Cc1cc(Cl)cc(-c2ccnc3cc(Cn4c(=O)ccn(C)c4=O)sc23)c1O[C@@H]1CC[C@@H](N)C1` [Example 426, 3-[[7-[2-[(1R,3R)-3-aminocyclopentoxy]-5-chloro-3-methyl-phenyl]thieno[3,2-b]pyridin-2-yl]methyl]-1-methyl-pyrimidine-2,4-dione; 2,2,2-trifluoroacetic acid] was tested, and the pIC50 was over 6.00.
For `Cc1cc(Cl)cc(-c2ccnc3cc(CN4C(=O)CCC4=O)sc23)c1OC1CCCC(N)C1` (centres unmarked) [Example 427, 1-[[7-[2-(3-aminocyclohexoxy)-5-chloro-3-methyl-phenyl]thieno[3,2-b]pyridin-2-yl]methyl]pyrrolidine-2,5-dione; 2,2,2-trifluoroacetic acid], the pIC50 was over 6.00.
For `O=C1CCC(=O)N1Cc1cc2nccc(-c3cc(Cl)cc(C(F)F)c3O[C@@H]3CNC[C@@H]3F)c2s1` [Example 428, 1-[[7-[5-chloro-3-(difluoromethyl)-2-[(3R,4S)-4-fluoropyrrolidin-3-yl]oxy-phenyl]thieno[3,2-b]pyridin-2-yl]methyl]pyrrolidine-2,5-dione], the pIC50 was over 6.00.
`Cc1cc(Cl)cc(-c2ccnc3cc(CN4C(=O)CCC4=O)sc23)c1OC1CNCc2ccccc21` (centres unmarked) [Example 429, 1-[[7-[5-chloro-3-methyl-2-(1,2,3,4-tetrahydroisoquinolin-4-yloxy)phenyl]thieno[3,2-b]pyridin-2-yl]methyl]pyrrolidine-2,5-dione] showed a pIC50 of over 6.00.
Molecule `Cc1cc(Cl)cc(-c2ccnc3cc(CN4C(=O)CCC4=O)sc23)c1O[C@@H]1CN[C@@H]2COC[C@@H]21` [Example 430, 1-[[7-[2-[[(3S,3aR,6aS)-2,3,3a,4,6,6a-hexahydro-1H-furo[3,4-b]pyrrol-3-yl]oxy]-5-chloro-3-methyl-phenyl]thieno[3,2-b]pyridin-2-yl]methyl]pyrrolidine-2,5-dione] has a pIC50 of over 6.00.
`O=C1CCC(=O)N1Cc1cc2nccc(-c3cc(Cl)cc(C(F)F)c3OC3CCNCC3)c2s1` [Example 431, 1-[[7-[5-chloro-3-(difluoromethyl)-2-(4-piperidyloxy)phenyl]thieno[3,2-b]pyridin-2-yl]methyl]pyrrolidine-2,5-dione dihydrochloride] gave a pIC50 of over 6.00.
With `O=C1CCC(=O)N1Cc1cc2nccc(-c3cc(Cl)cc(C(F)F)c3O[C@H]3CCCNC3)c2s1` [Example 432, 1-[[7-[5-chloro-3-(difluoromethyl)-2-[[(3S)-3-piperidyl]oxy]phenyl]thieno[3,2-b]pyridin-2-yl]methyl]pyrrolidine-2,5-dione dihydrochloride] the pIC50 was over 6.00.
`Cc1c(F)c(Cl)cc(-c2ccnc3cc(CN4C(=O)CCC4=O)sc23)c1O[C@H]1CCCNC1` [Example 433, 1-[[7-[5-chloro-4-fluoro-3-methyl-2-[[(3S)-3-piperidyl]oxy]phenyl]thieno[3,2-b]pyridin-2-yl]methyl]pyrrolidine-2,5-dione; 2,2,2-trifluoroacetic acid] was tested, and the pIC50 was 5.00 to 6.00.
Molecule `Cc1cc(C(F)(F)F)cc(-c2ccnc3cc(Cn4c(=O)[nH]cc(C)c4=O)sc23)c1O[C@@H]1CNC[C@@H]1F` [Example 434, 3-[[7-[2-[(3R,4S)-4-fluoropyrrolidin-3-yl]oxy-3-methyl-5-(trifluoromethyl)phenyl]thieno[3,2-b]pyridin-2-yl]methyl]-5-methyl-1H-pyrimidine-2,4-dione] has a pIC50 of over 6.00.
With `Cc1c(F)c(Cl)cc(-c2ccnc3cc(Cn4c(=O)ccn(C)c4=O)sc23)c1O[C@H]1CCCNC1` [Example 435, 3-[[7-[5-chloro-4-fluoro-3-methyl-2-[[(3S)-3-piperidyl]oxy]phenyl]thieno[3,2-b]pyridin-2-yl]methyl]-1-methyl-pyrimidine-2,4-dione dihydrochloride] the pIC50 was 5.00 to 6.00.
`Cc1cc(Cl)cc(-c2ccnc3cc(CN4C(=O)C5C(C4=O)C5(C)C)sc23)c1O[C@H]1CCCNC1` (stereo partly drawn) [Example 436, 3-[[7-[5-chloro-3-methyl-2-[[(3S)-3-piperidyl]oxy]phenyl]thieno[3,2-b]pyridin-2-yl]methyl]-6,6-dimethyl-3-azabicyclo[3.1.0]hexane-2,4-dione dihydrochloride] gave a pIC50 of over 6.00.
For `Cc1cc(Cl)cc(-c2ccnc3cc(CN4C(=O)CCC4=O)sc23)c1OC1CC(N)C1` (centres unmarked) [Example 437, 1-[[7-[2-(3-aminocyclobutyoxy)-5-chloro-3-methyl-phenyl]thieno[3,2-b]pyridin-2-yl]methyl]pyrrolidine-2,5-dione; 2,2,2-trifluoroacetic acid], the pIC50 was over 6.00.
For `Cc1cc(Cl)cc(-c2ccnc3cc(CN4C(=O)CCC4=O)sc23)c1OC1CC(N)C1` (centres unmarked) [Example 438, 1-[[7-[2-(3-aminocyclobutoxy)-5-chloro-3-methyl-phenyl]thieno[3,2-b]pyridin-2-yl]methyl]pyrrolidine-2,5-dione; 2,2,2-trifluoroacetic acid], the pIC50 was over 6.00.
Work on `Cc1cc(Cl)cc(-c2ccnc3cc(CN4C(=O)CCC4=O)sc23)c1OC1CC2(CCN2)C1` (centres unmarked) [Example 439, 1-[[7-[2-(1-azaspiro[3.3]heptan-6-yloxy)-5-chloro-3-methyl-phenyl]thieno[3,2-b]pyridin-2-yl]methyl]pyrrolidine-2,5-dione; 2,2,2-trifluoroacetic acid] yielded a pIC50 of over 6.00.
In the case of `CCn1ccc(=O)n(Cc2cc3ncnc(-c4cc(Cl)cc(C)c4O[C@H]4CCCNC4)c3s2)c1=O` [Example 440, 3-[[4-[5-chloro-3-methyl-2-[[(3S)-3-piperidyl]oxy]phenyl]thieno[3,2-d]pyrimidin-6-yl]methyl]-1-ethyl-pyrimidine-2,4-dione; 2,2,2-trifluoroacetic acid], the pIC50 was over 6.00.
For `Cc1cc(Cl)cc(-c2ccnc3cc(Cn4c(=O)ccn(C)c4=O)sc23)c1O[C@@H]1CNC[C@@H]1C(F)(F)F` [Example 441, 3-[[7-[5-chloro-3-methyl-2-[(3S,4S)-4-(trilfuoromethyl)pyrrolidin-3-yl]oxy-phenyl]thieno[3,2-b]pyridin-2-yl]methyl]-1-methyl-pyrimidine-2,4-dione], the pIC50 was over 6.00.
Work on `Cc1cc(Cl)cc(-c2ccnc3cc(Cn4c(=O)ccn(C)c4=O)sc23)c1OC1CNCC(F)(F)C1` (centres unmarked) [Example 442, 3-[[7-[5-chloro-2-[(5,5-difluoro-3-piperidyl)oxy]-3-methyl-phenyl]thieno[3,2-b]pyridin-2-yl]methyl]-1-methyl-pyrimidine-2,4-dione; 2,2,2-trifluoroacetic acid] yielded a pIC50 of over 6.00.
`Cc1cc(Cl)cc(-c2ccnc3cc(CN4C(=O)CCC4=O)sc23)c1OC1CC(C)(N)C1` (centres unmarked) [Example 443, 1-[[7-[2-(3-amino-3-methyl-cyclobutoxy)-5-chloro-3-methyl-phenyl]thieno[3,2-b]]pyridin-2-yl]methyl]pyrrolidine-2,5-dione dihydrochloride] was tested, and the pIC50 was over 6.00.
Molecule `Cc1cc(Cl)cc(-c2ccnc3cc(CN4C(=O)CCC4=O)sc23)c1OC1CC(C)(N)C1` (centres unmarked) [Example 444, 1-[[7-[2-(3-amino-3-methyl-cyclobutoxy)-5-chloro-3-methyl-phenyl]thieno[3,2-b]pyridin-2-yl]methyl]pyrrolidine-2,5-dione dihydrochloride] has a pIC50 of over 6.00.
Molecule `Cc1cc(C(F)(F)F)cc(-c2ccnc3cc(Cn4c(=O)ccn(C)c4=O)sc23)c1O[C@H]1CCCNC1` [Example 445] has a pIC50 of over 6.00.
